The text below walks through data of patent US7105573B2, “Methods and compositions for the treatment of alopecia and other disorders of the pilosebaceous apparatus” (Orentreich Foundation for the Advancement of Science, Inc., priority 2000, dated 2006).

How the values of data set [1] were obtained:
For production of the test materials described herein, it is dissolved in water to twice the desired final concentration, then mixed with an equal volume of a solution of 4% butylene glycol in special denatured alcohol (SDA) for a final concentration of 50% SDA and 2% butylene glycol. […] Preferred concentrations are about 0.8% to about 2.0%.
(§1) If more neutral solutions are required, a penetration enhancing agent should be used to help deliver the drug to the dermis. […] Some, like dimethylsulfoxide (DMSO), are applied to the skin for 10–15 minutes prior to administration of the drug, while others, such as myristylamine oxide (MAO), SEPA and N-methyl pyrrolidone (NMP), can be added to the inventive composition in the appropriate concentration before applying to the skin.
It is important to remove the salts that are produced during this process. Therefore, the mixture is lyophilized, and the dry powder reconstituted in absolute ethanol.

Data set [2] concerns age-dependent hair loss in female ob/ob (obese) mice. Nature of the data set: Oral metformin hydrochloride and age-dependent hair loss in female ob/ob mice (Example 5). It counts as in vivo. An excerpt:
Twenty-one female C57BL/6J ob/ob mice were purchased from the Jackson Laboratory (Bar Harbour, Me.) at five weeks of age. […] Dosages were adjusted on a weekly basis to reflect changes observed in body weight. All animals were group housed and were allowed access to standard laboratory chow and water ad libitum. The progression of hair loss was documented throughout the study.

The procedure of data set [3]: as §1
The source holds these as a separate data set.

Data set [4] can be described thus: Skin irritation of metformin base and salts in 50% SDA / 2% butylene glycol vehicle. In kind it is in vivo. To be noted: applied in 50% SDA, 2% butylene glycol in water.
The subject of data set [5] is skin of the hairless mouse. Nature of the data set: Skin redness in hairless mouse, 11 days of treatment. It counts as in vivo. To be noted: 50 μL, 2× per day.
Data set [6] concerns alopecic female ob/ob mice. Put plainly: Topical biguanide / metformin hair growth in obese (ob/ob) mouse model (Example 3). It counts as in vivo. How it is done: When pharmaceutically acceptable salts of biguanide were applied in reasonable concentrations (e.g., about 0.5% to about 10%) in a suitable topical vehicle (e.g., solution, tincture, gel, lotion, cream or ointment) containing a suitable penetration enhancing agent (e.g., surfactant, DMSO, N-methyl pyrrolidone), the growth of hair was stimulated in the obese (ob/ob) mouse model.
Two alopecic female ob/ob mice were treated with 0.8% topical metformin for three months beginning at 13 months of age. Applications of 50 ul were made twice per day (except weekends) to the alopecic (intrascapular) site.

Data set [7] concerns obese (ob/ob -Thieller background) mouse. To be noted: 240 mg/kg/d in drinking water for 4 weeks; cited from earlier work.
For data set [8], the system named is hair loss in aged female obese (C57BL/6J-ob/ob) mice. Nature of the data set: Oral metformin and hair loss in aged female obese mice (Example 1). It counts as in vivo. How it is done: The objective of the experiments in this Example is to examine the effects of the biguanide […] metformin on hair loss in aged female obese (C57BL/6J-ob/ob) mice. The hypothesis tested is that metformin, when administered in these mice at a relatively young age, will increase insulin sensitivity, thereby preventing or slowing the progression of hair loss.
Animals: Female C57BL/6J Lep , ob/ob. (homozygous) and C57BL/6J Lep <ob/+> (heterozygous) mice are purchased from the Jackson Laboratory (Bar Harbor, Me.). All animals are housed at a density of 2–3 animals per cage and are maintained on a photoperiod of 12 h light: 12 h dark. Food and water are provided ad libitum.
The dosage is adjusted each week to reflect changes in body weight. Since the animals are group housed, the adjustment is made based on the mean weight of the treatment group, rather than on an animal-to-animal basis. The water is changed twice per week. Periodically the concentration of the metformin in the drinking water is verified by HPLC.
Experimental groups: The ob/+ animals are not entered into the study until two weeks after the ob/ob mice. […] Thus, once the ob/+ are 7 weeks of age, they are entered in the study.
Parameters monitored: Body weight, food and water consumption are monitored twice per week. Blood samples are collected from the orbital sinus of unanesthesized mice at the baseline and on a monthly basis for the duration of the study. These blood collections are designed to monitor serum glucose and insulin levels. C-peptide and insulin-like growth factor 1 (IGF-1) are also monitored periodically throughout the study. Blood samples for C-peptide analysis are collected following an overnight fast. Selected animals are photographed throughout the study to document the slowing or progression of hair loss.

Data set [9] has as its system hair loss in C57BL/6J Lep (ob) female mice. Put plainly: Oral troglitazone ob/ob female mice study (Example 6). It counts as in vivo. To be noted: 350 days; 0.2% troglitazone in diet; control 100%. How it is done:
This study involved oral administration of troglitazone (Rezulin®) to C57BL/6J Lep (ob) female mice.
Non-alopecic female ob/ob mice (7 weeks at start of study) are maintained on a photoperiod of 12 h light:12 h dark. Food (Purina 5001 Meal diet or Purina 5001 with 0.2% troglitazone) and water (acidified pH 2.5) are provided ad libitum.
Troglitazone (Rezulin®) is purchased from Parke-Davis (Morris Plains, NJ) in tablet form. The entire tablet (including the coat) is crushed in a blender prior to being incorporated into the diet. The amount of troglitazone added to the diet is adjusted to account for the weight of the tablet and the actual amount of the drug (400 mg/tablet) incorporated into the tablet.
The progression of hair loss is monitored by the investigator on a weekly to biweekly basis. The dorsal hair coat is photographed on a monthly basis to chart the onset and/or progression of alopecia.

Structures can show the parent of a compound that is named as a salt. Where two headings read alike, the source gives them in different places.

As for `N=C(N)NC(=N)N` [Biguanide, Biguanide (NH2C(═NH)NHC(═NH)NH2)], in data set [1], the “long-term chemical stability in water” value is given as “limited long-term chemical stability in water” and the “solubility in water” value is “water soluble”.
Consider `CN(C)C(=N)N=C(N)N` [Metformin HCl, Metformin hydrochloride], for which, in [2] (300 days of age, controls about 40%), the “incidence of hair loss” value is recorded as “about 20%”. The “incidence of hair loss” value in [2] (370 days of age, excluding animals with only possible thinning of the hair coat, controls greater than 60%) stood at 30%. For the same compound, the “onset of hair loss” value in data set [2] (female ob/ob mice, 240 mg/kg/d in acid water) is recorded as “delayed”. In addition, the “incidence of spontaneous skin condition (may resemble acanthosis nigricans or migratory ichthyosis)” value in [2] (relative to control animals, the majority of which were affected) is reported as “markedly less incidence”. Moreover, the “penetration to the dermis as a function of pH” value in data set [3] is “improves as pH increases”. Moreover, in [3] (6 h), the absorbed through skin was < 1% and the “percutaneous absorption (absorbed)” value is recorded as <1%. Moreover, the “irritation to the skin” value in data set [4] was “no irritation”.
For the compound `CN(C)C(=N)NC(=N)N` [Metformin base], the absorbed through skin in data set [3] is listed as 75%–88%. The “irritation to the skin” value in data set [4] is “significant irritation”.
For the compound `CN(C)C(=N)N=C(N)N.O=C(O)c1cc2ccccc2c(Cc2c(O)c(C(=O)O)cc3ccccc23)c1O` [Metformin pamoate, metformin pamoate], in [3], the absorbed through skin is < 1% and the “penetration on addition of SR-38 to the formula” value is on record as “similarly improved”. Also, the “irritation to the skin” value in data set [4] is recorded as “no irritation”.
Take `CCCCCCCCCCC1COC(=O)N1` (stereo not shown) [SR-38, 4-decyloxazolidin-2-one]: the “redness on the skin” value in data set [5] is given as “only mild, temporary redness”.
In the case of `CN(C)C(=N)N=C(N)N` [metformin], the “pigmentation at the alopecic site (onset of anagen)” value in [6] (0.8% topical, 50 ul twice per day, after two months of treatment, two alopecic female ob/ob mice, 13 months of age at start) is listed as “presence of pigmentation at the alopecic site”. Besides, the “emergence of new hairs at the alopecic site” value in [6] (0.8% topical, the week following two months of treatment) is listed as “small hairs emerging from the skin”. Also, the “persistence of new hairs after withdrawal of treatment” value in data set [6] (observed for 6 weeks after the three-month treatment) is given as “new hairs remained intact”. Besides, in data set [3], the “penetration of the applied metformin dose” value is “up to 20%” and the “share of composition passing through the dermis” value was “over 90%”. Moreover, in [7], the “concentration of hepatocyte high and low affinity insulin receptors” value is “increase”; the “hypoglycemic response to exogenous insulin” value is recorded as “did not alter”; the plasma insulin levels entry is recorded as “lowered”. For the same compound, the “onset of hair loss” value in [8] (female ob/ob mice, 240 mg/kg/d in drinking water) is on record as “delayed”. Further, in [8] (ob/+ (heterozygous) mice, 240 mg/kg p.o.), the “hair loss in ob/+ mice” value is “not observed”. The “hair loss observed (% of animals affected)” value in data set [8] (ob/ob mice at 10 months of age (nearly 8 months of treatment), 240 mg/kg p.o., control 36%) came out at 8%.
As to `Cc1c(C)c2c(c(C)c1O)CCC(C)(COc1ccc(CC3SC(=O)NC3=O)cc1)O2` (stereo not shown) [troglitazone], in data set [9], the “animals exhibiting some degree of hair loss” value came to 60%.
